One data set in a line: Solubility in water. The class given is physicochemical. The text has this:
To increase solubility, its sequence was elongated at the N- and C-terminals by adding hydrophilic amino acids from the protein sequence. […] These modifications were introduced to prevent the oxidation of methionine and cysteine.

For a further data set, the target named is PD-L1 protein. To be noted: Table S6, supplement reference list, read-out: Affinity (KD), cited from earlier work. The text has this:
Supplement mmc1.docx, table 8: Table S6. […] D - amino acids are marked with a lowercase letter. NB - no binding; ND - no data; JD - no name given by the authors. | column: Affinity (KD) [µM]

In a further data set the target is PD-1 protein. To be noted: Table S5, supplement reference list, read-out: Affinity (KD), cited from earlier work.
Data set [1] concerns the target programmed cell death 1 (PD-1) (human, UniProt Q15116 25-170). Briefly: SPR; Biacore T200; biotin-(Gly)5-peptides immobilised on an SA sensor chip (~800 RU, L1 ~500 RU); PD-1 injected at 0.31-10 µM (two-fold dilutions); PBS-P running buffer, 30 µl/min, 25°C; 1:1 binding model, at least three titrations. The following applies: both partners purified.

Where two headings read alike, the source gives them in different places. Ends that are not written are not given here. Peptide text beside a SMILES is read from it.

programmed cell death 1 (PD-1), sequence (Q15116 25-170): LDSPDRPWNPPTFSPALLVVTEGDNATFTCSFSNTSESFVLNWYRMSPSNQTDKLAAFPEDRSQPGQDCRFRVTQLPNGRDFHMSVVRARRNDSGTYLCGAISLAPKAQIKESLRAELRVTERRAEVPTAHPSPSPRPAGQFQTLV

Take `CCCC[C@H](NC(=O)[C@H](CCC(=O)O)NC(=O)[C@H](Cc1c[nH]c2ccccc12)NC(=O)[C@H](Cc1ccc(O)cc1)NC(=O)[C@@H](NC(=O)[C@@H](NC(=O)[C@H](CC(C)C)NC(=O)[C@H](C)NC(C)=O)[C@@H](C)CC)C(C)C)C(=O)N[C@@H](CCC(=O)O)C(=O)N[C@@H](CC(=O)O)C(=O)N[C@@H](CCCCN)C(=O)N[C@@H](CC(N)=O)C(=O)N[C@H](C(=O)N[C@H](C(=O)N[C@@H](CCC(N)=O)C(=O)N[C@@H](Cc1ccccc1)C(=O)N[C@H](C(N)=O)C(C)C)[C@@H](C)CC)[C@@H](C)CC` [Peptide L2] (HELM PEPTIDE1{[ac].A.L.I.V.Y.W.E.[Nle].E.D.K.N.I.I.Q.F.V.[am]}$$$$V2.0): the “Solubility in water” value in the data set “Solubility in water” is “poorly soluble in water”. For CLQKTPKQC [PD-L1Pep-1], at PD-L1 protein (ref [36]), the equilibrium dissociation constant (Kd) was 0.373 µM.

Take CRAMISYGGADYK-(N-Me-Arg)-IC [MN1.4]: the Kd at PD-1 protein (ref [21]) was 2 µM. With CVRARTR [PD-L1Pep-2], the dissociation constant Kd at PD-L1 protein (ref [36]) is 0.281 µM.

“CVYRCMISYGGADYKRITC (disulfide (positions not given here)) [ΔDS-II [C110–C128]]”: the dissociation constant (Kd) at PD-1 protein (ref [8]) is 11.6 µM. As for “CYRCMISYGGADYKRIC (disulfide (positions not given here))”, the Kd on PD-1 protein (ref [8]) was 17.5 µM. Consider DWFKAFYDKINETYNK [Peptide 4F-32], for which the Kd at PD-L1 protein (ref [47]) is 0.017 µM. On to DWIKANYDETAEYNKEAK [Peptide 4F-30], for which the Kd on PD-L1 protein (ref [47]) is 419 µM.

As to DYHDPSLPTLRK [CLP004], the equilibrium dissociation constant (Kd) on PD-1 protein (ref [10]) is 0.544 µM. As for FNWDYSLEELREKAKYK [Ar5Y_2], the Kd on PD-1 protein (ref [3]) is 3.14 µM. For the molecule FNWDYSWKSERLKEAYDL [Ar5Y_1], the dissociation constant Kd at PD-1 protein (ref [3]) is 3.39 µM.

As for FRWWR [WANG-004], the Kd at PD-1 protein (NB = no binding, ref [6]) is 1.6 µM.

As to FSGTVTTAGLLF [P-F4], the Kd at PD-1 protein (ref [17]) is 0.119 µM. Take GDWFKAYYDKVAEG [Peptide 4F-8]: at PD-L1 protein (ref [47]), the Kd was 412 µM. As for GIDYEERWK [Ar4_1], the Kd at PD-1 protein (ref [3]) is 28.3 µM. Turning to GNADYNSQRAQLYNQ [Ar5Y_4 W3A], on PD-1 protein (ref [3]), the equilibrium dissociation constant (Kd) is 8.08 µM. Turning to GNWAYNSQRAQLYNQ [Ar5Y_4 D4A], at PD-1 protein (ref [3]), the dissociation constant Kd is 18.9 µM. Regarding GNWDANSQRAQLYNQ [Ar5Y_4 Y5A], the Kd at PD-1 protein (ref [3]) was 20.2 µM. For GNWDYNSQAAQLYNQ [Ar5Y_4 R9A], the Kd on PD-1 protein (ref [3]) was 21.2 µM.

As to GNWDYNSQRAQLANQ [Ar5Y_4 Y13A], on PD-1 protein (ref [3]), the Kd was 10.2 µM. Take GNWDYNSQRAQLYNQ [Ar5Y_4]: the Kd at PD-1 protein (ref [3]) is 1.38 µM.

Take GQSEHHMRVYSF [OPBP-1]: on PD-L1 protein (ref [38]), the Kd is 0.667 µM.

As to GTRLKPLIICVQWPGL [PD-L1ip3], the dissociation constant (Kd) at PD-L1 protein (ref [40]) is 33 µM. For HYPFRPHANQAS [CLP001], at PD-1 protein (ref [10]), the Kd is 0.534 µM.

Take KRWWR [WANG-003]: the dissociation constant (Kd) at PD-1 protein (NB = no binding, ref [6]) was 3.3 µM. As for KSKAVNRVSQESEM [Pep6], the Kd on PD-1 protein (ref [12]) is 66.4 µM. Turning to LDYDGRLSQ [Ar4_2], on PD-1 protein (ref [3]), the Kd is 83.9 µM. Take LDYGDKREGQMAE [Ar5M_1]: on PD-1 protein (ref [3]), the Kd is 21.6 µM. On to LDYVNRRKMYQ [Ar5M_2], for which the Kd on PD-1 protein (ref [3]) was 3.32 µM. LERHDFGDGRARYEE [Pep10]: at PD-1 protein (ref [12]), the Kd is 39 µM. LETWFGKEILVKT [Pep1]: on PD-1 protein (ref [12]), the Kd is 140 µM. Consider LEYWSSGSTTMYGL [Pep9], for which the Kd on PD-1 protein (ref [12]) was 36.4 µM. For QYRCNGTSSKGSDQAIITLRV [Pep14], at PD-1 protein (ref [12]), the Kd is 10.9 µM. For RCMICYGGADYKRI [Peptide P1.1], the Kd on PD-1 protein (ref [11]) is 3.66 µM. As for RCMISYpGADYKRI [Peptide P1.2], the dissociation constant Kd at PD-1 protein (ref [11]) was 83 µM.

Consider RRQWFW [JD2], for which, at PD-1 protein (ref [19]), the Kd is 4.38 µM.

As for RRWQWR [WANG-005], at PD-1 protein (NB = no binding, ref [6]), the Kd is 5.1 µM.

Regarding RRWWRR [JD1], the Kd at PD-1 protein (ref [19]) was 4.01 µM. For RTCITYpGADYCRI [Peptide P1.4], the Kd at PD-1 protein (ref [11]) was 474 µM. As for RTMIWYAAAWYKRI [Peptide P2.2], the Kd on PD-1 protein (ref [11]) is 55.2 µM. On to RTMIWYGpAWYKRI [Peptide P2.3], for which the Kd at PD-1 protein (ref [11]) was 129 µM. For RTMIWYpPAWYKRI [Peptide P2.1], on PD-1 protein (ref [11]), the Kd is 29.2 µM. For the molecule SGQQRTSADCWEDHGWGSGGSK [PBP], the Kd on PD-1 protein (ref [22]) was 17.4 µM. In the case of SGQYASYHCWCWRDPGRSGGSK [TPP-1], the Kd at PD-L1 protein (ref [34]) is 0.095 µM. In the case of SHFSASYDKYAEKF [Peptide 4F-16], the Kd at PD-L1 protein (ref [47]) is 49.4 µM.

As to “SHHHRLSRLKEIANSPTQFWRMVARNTLGNGAKQSLNIEHARL [nABPD1]”, the Kd on PD-1 protein (ref [18]) was 0.0119 µM. For the molecule “SRLKEIANSPTQFWRMVARNTLGNGAKQSLNIEHARL [nABP284]”, the Kd at PD-1 protein (ref [18]) is 11.8 µM. With TEKDYRHGNIRMKLAYDL [Ar5Y_3], the Kd on PD-1 protein (ref [3]) was 3.13 µM. Turning to TFKVEDRYGQGQQILD [Pep4], on PD-1 protein (ref [12]), the Kd is 22.7 µM. TSEVDNGVGKPQKHS [Pep3]: the Kd on PD-1 protein (ref [12]) was 81.1 µM.

With VFELRHSKRKDSRTVY [Pep2], at PD-1 protein (ref [12]), the Kd was 127 µM.

For the molecule WDYD [Ar3_1], the dissociation constant Kd on PD-1 protein (ref [3]) is 22.3 µM.

Consider WHFSYNWRWLPP [CLP003], for which, at PD-1 protein (ref [10]), the dissociation constant Kd is 0.117 µM.

Take WHRSYYTWNLNT [CLP002]: the Kd on PD-1 protein (ref [10]) is 0.366 µM. Regarding [CKWYRPSEC] [Peptide C8], the Kd on PD-1 protein (ref [16]) is 0.64 µM. Take [TMYLerRYpD] [PD-i3]: on PD-1 protein (ref [13]), the Kd is 102 µM.

B1: PD-L1(110-128)(V111C-T127C), biotin-(Gly)5 form (peptide)
chain: GCYRCMISYGGADYKRICV
HELM: PEPTIDE1{[O=C1N[C@H]2[C@H](CS[C@H]2CCCCC(=O)[*:2])N1].G.G.G.G.G.G.C.Y.R.[Abu].[Nle].I.S.Y.G.G.A.D.Y.K.R.I.C.V.[am]}$PEPTIDE1,PEPTIDE1,8:R3-24:R3$$$V2.0
SMILES: CCCC[C@@H]1NC(=O)[C@H](CC)NC(=O)[C@H](CCCNC(=N)N)NC(=O)[C@H](Cc2ccc(O)cc2)NC(=O)[C@@H](NC(=O)CNC(=O)CNC(=O)CNC(=O)CNC(=O)CNC(=O)CNC(=O)CCCC[C@@H]2SC[C@@H]3NC(=O)N[C@@H]32)CSSC[C@@H](C(=O)N[C@H](C(N)=O)C(C)C)NC(=O)[C@H]([C@@H](C)CC)NC(=O)[C@H](CCCNC(=N)N)NC(=O)[C@H](CCCCN)NC(=O)[C@H](Cc2ccc(O)cc2)NC(=O)[C@H](CC(=O)O)NC(=O)[C@H](C)NC(=O)CNC(=O)CNC(=O)[C@H](Cc2ccc(O)cc2)NC(=O)[C@H](CO)NC(=O)[C@H]([C@@H](C)CC)NC1=O
B1: in data set [1], the koff is 0.00071 s⁻¹ and the kon came out at 33.1 M⁻¹ s⁻¹.

B2: PD-L1(113-126), biotin-(Gly)5 form (peptide)
chain: RCMISYGGADYKRI
HELM: PEPTIDE1{[O=C1N[C@H]2[C@H](CS[C@H]2CCCCC(=O)[*:2])N1].G.G.G.G.G.R.[Abu].[Nle].I.S.Y.G.G.A.D.Y.K.R.I.[am]}$$$$V2.0
SMILES: CCCC[C@H](NC(=O)[C@H](CC)NC(=O)[C@H](CCCNC(=N)N)NC(=O)CNC(=O)CNC(=O)CNC(=O)CNC(=O)CNC(=O)CCCC[C@@H]1SC[C@@H]2NC(=O)N[C@@H]21)C(=O)N[C@H](C(=O)N[C@@H](CO)C(=O)N[C@@H](Cc1ccc(O)cc1)C(=O)NCC(=O)NCC(=O)N[C@@H](C)C(=O)N[C@@H](CC(=O)O)C(=O)N[C@@H](Cc1ccc(O)cc1)C(=O)N[C@@H](CCCCN)C(=O)N[C@@H](CCCNC(=N)N)C(=O)N[C@H](C(N)=O)[C@@H](C)CC)[C@@H](C)CC
On to B2, for which, in data set [1], the koff was 0.000194 s⁻¹ and the on-rate (kon) was determined as 24.7 M⁻¹ s⁻¹.

B3: PD-L1(111-127), biotin-(Gly)5 form (peptide)
chain: VYRCMISYGGADYKRIT
HELM: PEPTIDE1{[O=C1N[C@H]2[C@H](CS[C@H]2CCCCC(=O)[*:2])N1].G.G.G.G.G.V.Y.R.[Abu].[Nle].I.S.Y.G.G.A.D.Y.K.R.I.T.[am]}$$$$V2.0
SMILES: CCCC[C@H](NC(=O)[C@H](CC)NC(=O)[C@H](CCCNC(=N)N)NC(=O)[C@H](Cc1ccc(O)cc1)NC(=O)[C@@H](NC(=O)CNC(=O)CNC(=O)CNC(=O)CNC(=O)CNC(=O)CCCC[C@@H]1SC[C@@H]2NC(=O)N[C@@H]21)C(C)C)C(=O)N[C@H](C(=O)N[C@@H](CO)C(=O)N[C@@H](Cc1ccc(O)cc1)C(=O)NCC(=O)NCC(=O)N[C@@H](C)C(=O)N[C@@H](CC(=O)O)C(=O)N[C@@H](Cc1ccc(O)cc1)C(=O)N[C@@H](CCCCN)C(=O)N[C@@H](CCCNC(=N)N)C(=O)N[C@H](C(=O)N[C@H](C(N)=O)[C@@H](C)O)[C@@H](C)CC)[C@@H](C)CC
Regarding B3, in data set [1], the koff worked out at 0.00179 s⁻¹ and the kon worked out at 10.9 M⁻¹ s⁻¹.

For orientation: Kd means the constant that tells how readily two partners part at equilibrium. As a reminder, the koff is the rate constant with which the complex falls apart. By kon is commonly meant the rate constant with which the complex forms. High values mean faster complex formation, low ones slower complex formation.

The values above are taken from paper PMC10877416 (Translational Oncology, 2024).
